This passage reports Kd results from patent US20080188518A1 (priority 2003, published 2008).

The target of the test is α7 nAChR subtype (Rattus norvegicus, UniProt Q05941). The format is binding. The note with it: read-out: KD of radioligand (saturation curves, one site model).
α7 nAChR subtype, sequence (Q05941 23-502 limits assumed): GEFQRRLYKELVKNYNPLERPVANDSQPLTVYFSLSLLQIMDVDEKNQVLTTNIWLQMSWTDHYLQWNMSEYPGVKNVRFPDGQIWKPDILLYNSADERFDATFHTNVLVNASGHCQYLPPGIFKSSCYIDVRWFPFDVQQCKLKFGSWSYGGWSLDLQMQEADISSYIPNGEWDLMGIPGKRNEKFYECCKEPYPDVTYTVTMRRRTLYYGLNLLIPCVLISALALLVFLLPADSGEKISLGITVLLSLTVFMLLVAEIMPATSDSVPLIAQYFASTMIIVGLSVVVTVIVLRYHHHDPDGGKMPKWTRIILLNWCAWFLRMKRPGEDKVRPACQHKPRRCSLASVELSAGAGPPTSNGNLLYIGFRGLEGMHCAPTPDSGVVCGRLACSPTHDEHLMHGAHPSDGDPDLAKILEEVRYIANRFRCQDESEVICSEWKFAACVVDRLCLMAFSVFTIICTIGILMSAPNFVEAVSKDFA

Turning to 125I-α-Bungarotoxin [[^125I]-α-BTX], the Kd was determined as 1.67 nM.
